Counter-ions that a name gives are not always drawn. Like-named read-outs stand apart in the source and are kept apart here.
What was measured:
[1] = molecular target: T1, Recombinant Human 17β-HSD2 (Homo sapiens, UniProt P37059); assay: Inhibition of recombinant human 17β-HSD2 (conversion of 3H-estradiol to estrone, HPLC); format: biochemical; details: read-out: 17β-HSD2 Inhibition % at 1 μM
T1 construct: made in house; host or cells: Sd9 (Sf9) insect cells, baculovirus (Bac to Bac Expression System)
T1 sequence (P37059 1-387): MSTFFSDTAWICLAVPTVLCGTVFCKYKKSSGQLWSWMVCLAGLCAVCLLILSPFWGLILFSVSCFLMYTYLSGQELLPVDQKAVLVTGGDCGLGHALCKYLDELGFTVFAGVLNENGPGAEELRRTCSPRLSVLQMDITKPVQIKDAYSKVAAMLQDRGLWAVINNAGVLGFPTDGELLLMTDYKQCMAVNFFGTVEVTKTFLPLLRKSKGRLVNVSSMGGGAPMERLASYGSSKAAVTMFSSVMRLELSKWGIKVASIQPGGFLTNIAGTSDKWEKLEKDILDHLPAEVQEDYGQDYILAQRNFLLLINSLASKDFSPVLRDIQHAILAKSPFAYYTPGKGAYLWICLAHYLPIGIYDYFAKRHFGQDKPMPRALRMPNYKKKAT
Experimental: 17β-HSD2 Production and Isolation:
Similarly to 17β-HSD1 the Recombinant baculovirus was generated by the “Bac to Bac Expression System” (Invitrogen). Recombinant bacmid was transfected to Sd9 insect cells using “Cellfectin Reagent” (Invitrogen). 60 h later cells were harvested and supernatant were fractionated by the following protocol: • cells were dissolved into 40 ml of A-buffer (40 mM TRIS, pH8.0, 20% glycerol, 20 μM NAD, 0.4 mM PMSF, 150 mM NaCl, 0.5% dodecyl-β-maltoside+protease inhibitor cocktail) • cells were sonicated • lysate was incubated on ice for 15 min • lysate was centrifuged 5000 rpm 15 min, +4° C. • centrifugation of the supernatant 180.000 g 30 min, +4° C. • pellet was dissolved into 8 ml of A-buffer • not resuspended material was removed by centrifugation 5000 rpm 15 min, +4° C. • the clear supernatant was divided into 100 μl aliquots and were stored frozen until determination of enzymatic activity.
The amount of 17β-HSD2 was analysed by immunoblotting and total protein concentration of each extract batch was determined.
Assay—Inhibition of Recombinant Human 17β-HSD2:
Recombinant protein (4 μg/ml) was incubated in 20 mM KH2PO4 pH 8.5 with 50 nM estradiol (including 800.000 cpm/ml of ^3H-estradiol) and 1 mM NADH for 30 min at RT, in the presence of the potential inhibitor at concentrations 1 μM or 0.1 μM. Inhibitor stock solutions were prepared in DMSO. Final concentration of DMSO was adjusted to 1% in all samples. The enzyme reaction was stopped by addition of 10% trichloroacetic acid (final concentration). Samples were centrifuged in a microtiter plate at 4000 rpm for 10 min. Supernatants were applied to reverse phase HPLC on a Waters Symmetry C18 column, equipped with a Waters Sentry Guard column. Isocratic HPLC runs were performed at RT at a flow rate of 1 ml/min in acetonitrile:water 48:52 as running solvent. Radioactivity was monitored in the eluate by a Packard Flow Scintillation Analyzer. Total radioactivity for estrone and estradiol were determined in each sample and percent conversion of estradiol to estrone was calculated according to the following formula:
(§1) Percent inhibition was calculated flowingly: % inhibition=100−% conversion

[2] = molecular target: T2, Recombinant Human 17β-HSD1 (Homo sapiens, UniProt P14061); assay: Inhibition of recombinant human 17β-HSD1 (conversion of 3H-estrone to estradiol, HPLC); format: biochemical; details: read-out: 17β-HDS1 Inhibition % at 1 μM
T2 construct: made in house; host or cells: Sd9 (Sf9) insect cells, baculovirus (Bac to Bac Expression System)
T2 sequence (P14061 1-328): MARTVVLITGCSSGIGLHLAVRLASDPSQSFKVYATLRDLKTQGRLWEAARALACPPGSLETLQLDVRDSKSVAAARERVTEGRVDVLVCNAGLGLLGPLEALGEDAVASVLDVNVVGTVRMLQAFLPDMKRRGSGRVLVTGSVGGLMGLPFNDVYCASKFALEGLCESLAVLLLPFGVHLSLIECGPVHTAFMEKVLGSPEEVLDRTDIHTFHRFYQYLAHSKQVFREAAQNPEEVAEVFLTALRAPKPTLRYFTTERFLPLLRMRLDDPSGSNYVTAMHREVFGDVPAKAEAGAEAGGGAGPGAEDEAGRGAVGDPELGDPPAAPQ
Experimental: 17β-HSD1 Production and Isolation:
Recombinant baculovirus was generated by the “Bac to Bac Expression System” (Invitrogen). Recombinant bacmid was transfected to Sd9 insect cells using “Cellfectin Reagent” (Invitrogen). 60 h later cells were harvested; the microsomal fraction was isolated as described by Puranen, T. J., Poutanen, M. H., Peltoketo, H. E., Vihko, P. T. and Vihko, R. K. (1994) Site-directed mutagenesis of the putative active site of human 17 β-hydroxysteroid dehydrogenase type 1. Biochem. J. 304: 289-293. Aliquots were stored frozen until determination of enzymatic activity.
Assay—Inhibition of Recombinant Human 17β-HSD1:
Recombinant protein (1 μg/ml) was incubated in 20 mM KH2PO4 pH 7.4 with 30 nM estrone (including 800.000 cpm/ml of ^3H-estrone) and 1 mM NADPH for 30 min at RT, in the presence of the potential inhibitor at concentrations 1 μM or 0.1 μM. Inhibitor stock solutions were prepared in DMSO. Final concentration of DMSO was adjusted to 1% in all samples. The enzyme reaction was stopped by addition of 10% trichloroacetic acid (final concentration). Samples were centrifuged in a microtiter plate at 4000 rpm for 10 min. Supernatants were applied to reverse phase HPLC on a Waters Symmetry C18 column, equipped with a Waters Sentry Guard column. Isocratic HPLC runs were performed at RT at a flow rate of 1 ml/min in acetonitrile:water 48:52 as running solvent. Radioactivity was monitored in the eluate by a Packard Flow Scintillation Analyzer. Total radioactivity for estrone and estradiol were determined in each sample and percent conversion of estrone to estradiol was calculated according to the following formula:
as §1

[3] = Metabolic stability assay, human liver microsome and homogenate incubations; format: in vitro ADME; details: human liver homogenate or microsomes
Experimental: Metabolic Stability Assay The in vitro metabolic stability of the compounds of the invention was determined for exemplified compounds using human liver microsome and homogenate incubations. The incubation time points used with or without appropriate cofactors were 0 min and 60 min. Samples were collected at both time points and substrates were detected using LC/PDA/TOF-MS. In vitro metabolic stability (% remaining after 60 min in human liver homogenate or microsomes) of the compounds were calculated and the results are summarized in Table 3.

[4] = inhibitor at 1 μM, 50 nM estradiol, 1 mM NADH, 30 min at RT
[5] = inhibitor at 1 μM, 30 nM estrone, 1 mM NADPH, 30 min at RT

## COc1ccc2c(c1)CCC1C2CC[C@@]2(C)C1[C@H](CCC(=O)Nc1ncc(C)s1)C[C@@H]2OP(=O)(O)O (stereo partly drawn) [Compound 46, Phosphoric acid mono-{(13S,15R,17S)-3-methoxy-13-methyl-15-[2-(5-methylthiazol-2-ylcarbamoyl)-ethyl]-17-oxo-7,8,9,11,12,13,14,15,16,17-decahydro-6H-cyclopenta[a]phenanthren-17-yl}ester]
[1]; [4]
  inhibition at 1 µM: 1%
[2]; [5]
  inhibition at 1 µM: 84%

## Cc1cnc(NC(=O)CC[C@@H]2C[C@@](O)(CC#N)[C@@]3(C)CCC4c5cc(Br)c(O)c(Br)c5CCC4C23)s1 (stereo partly drawn) [Compound 30, 3-((13S,15R,17R)-2,4-dibromo-17-(cyanomethyl)-3,17-dihydroxy-13-methyl-7,8,9,11,12,13,14,15,16,17-decahydro-6H-cyclopenta[a]phenanthren-15-yl)-N-(5-methylthiazol-2-yl)propanamide]
[1]; [4]
  inhibition at 1 µM: 7%
[2]; [5]
  inhibition at 1 µM: 52%

## Cc1cnc(NC(=O)CC[C@@H]2C[C@H](NCc3ccco3)[C@@]3(C)CCC4c5ccc(O)cc5CCC4C23)s1 (stereo partly drawn) [Compound 76, 3-((13S,15R)-17-[(Furan-2-ylmethyl)-amino]-3-hydroxy-13-methyl-7,8,9,11,12,13,14,15,16,17-decahydro-6H-cyclopenta[a]phenanthren-15-yl]-N-(5-methylthiazol-2-yl)propionamide]
[1]; [4]
  inhibition at 1 µM: 4%
[2]; [5]
  inhibition at 1 µM: 85%

## Cc1cnc(NC(=O)CC[C@@H]2C[C@H](O)[C@@]3(C)CCC4c5cc(Br)c(O)c(Br)c5CCC4C23)s1 (stereo partly drawn) [Compound 28, 3-((13S,15R,17S)-2,4-dibromo-3,17-dihydroxy-13-methyl-7,8,9,11,12,13,14,15,16,17-decahydro-6H-cyclopenta[a]phenanthren-15-yl)-N-(5-methylthiazol-2-yl)propanamide]
[1]; [4]
  inhibition at 1 µM: 15%
[2]; [5]
  inhibition at 1 µM: 91%

## Cc1cnc(NC(=O)CC[C@@H]2CC(NCCCN(C)C)[C@@]3(C)CCC4c5ccc(O)cc5CCC4C23)s1 (stereo partly drawn) [Compound 80a, 3-[(13S,15R)-17-(3-Dimethylamino-propylamino)-3-hydroxy-13-methyl-7,8,9,11,12,13,14,15,16,17-decahydro-6H-cyclopenta[a]phenanthren-15-yl]-N-(5-methylthiazol-2-yl)propionamide]
[1]; [4]
  inhibition at 1 µM: 1%
[2]; [5]
  inhibition at 1 µM: 70%

## COCCNC1C[C@@H](CCC(=O)Nc2ncc(C)s2)C2C3CCc4cc(O)c(C(C)(C)C)cc4C3CC[C@]12C (stereo partly drawn) [Compound 79, 3-((13S,15R)-2-tert-Butyl-3-hydroxy-17-(2-methoxyethylamino)-13-methyl-7,8,9,11,12,13,14,15,16,17-decahydro-6H-cyclopenta[a]phenanthren-15-yl)-N-(5-methylthiazol-2-yl)propionamide]
[1]; [4]
  inhibition at 1 µM: 17%
[2]; [5]
  inhibition at 1 µM: 75%

## Cc1cnc(NC(=O)CC[C@@H]2C[C@@](O)(C#N)[C@@]3(C)CCC4c5ccc(O)cc5CCC4C23)s1 (stereo partly drawn) [Compound 21, 3-((13S,15R,17S)-17-cyano-3,17-dihydroxy-13-methyl-7,8,9,11,12,13,14,15,16,17-decahydro-6H-cyclopenta[a]phenanthren-15-yl)-N-(5-methylthiazol-2-yl)propanamide]
[1]; [4]
  inhibition at 1 µM: 6%
[2]; [5]
  inhibition at 1 µM: 76%

## Cc1cnc(NC(=O)CC[C@@H]2C[C@H](OC(=O)CCC(=O)O)[C@@]3(C)CCC4c5ccc(O)cc5CCC4C23)s1 (stereo partly drawn) [Compound 44, sodium salt]
[1]
  inhibition at 1 µM: 2%
[2]
  inhibition at 1 µM: 94%

## Cc1cnc(NC(=O)CC[C@@H]2CC(NC(C)C)[C@@]3(C)CCC4c5ccc(O)cc5CCC4C23)s1 (stereo partly drawn) [Compound 73, 3-[(13S,15R)-3-Hydroxy-17-isopropylamino-13-methyl-7,8,9,11,12,13,14,15,16,17-decahydro-6H-cyclopenta[a]phenanthren-15-yl]-N-(5-methylthiazol-2-yl)propionamide]
[1]; [4]
  inhibition at 1 µM: 11%
[2]; [5]
  inhibition at 1 µM: 86%

## CO[C@H]1C[C@@H](CCC(=O)Nc2ncc(C)s2)C2C3CCc4c(cc(Br)c(O)c4Br)C3CC[C@@]21C (stereo partly drawn) [Compound 29, 3-((13S,15R,17S)-2,4-dibromo-3-hydroxy-17-methoxy-13-methyl-7,8,9,11,12,13,14,15,16,17-decahydro-6H-cyclopenta[a]phenanthren-15-yl)-N-(5-methylthiazol-2-yl)propanamide]
[1]; [4]
  inhibition at 1 µM: 3%
[2]; [5]
  inhibition at 1 µM: 67%

## CC(=O)O[C@H]1C[C@@H](CCC(=O)Nc2ncc(C)s2)C2C3CCc4cc(OC(=O)c5ccccc5)ccc4C3CC[C@@]21C (stereo partly drawn) [Compound 55, Benzoic acid (13S,15R,17S)-17-acetoxy-13-methyl-15-[2-(5-methylthiazol-2-ylcarbamoyl)-ethyl]-17-oxo-7,8,9,11,12,13,14,15,16,17-decahydro-6H-cyclopenta[a]phenanthren-3-yl ester]
[3]
  In vitro metabolic stability, % remaining after 60 min: 47%

## Cc1cnc(NC(=O)CC[C@@H]2C[C@H](OP(=O)(O)O)[C@@]3(C)CCC4c5ccc(O)cc5CCC4C23)s1 (stereo partly drawn) [Compound 60]
[1]; [4]
  inhibition at 1 µM: 0%
[2]; [5]
  inhibition at 1 µM: 74%

## Cc1cnc(NC(=O)CC[C@@H]2CC(NCCO)[C@@]3(C)CCC4c5ccc(O)cc5CCC4C23)s1 (stereo partly drawn) [Compound 78, 3-((13S,15R)-3-Hydroxy-17-(2-hydroxyethylamino)-13-methyl-7,8,9,11,12,13,14,15,16,17-decahydro-6H-cyclopenta[a]phenanthren-15-yl]-N-(5-methylthiazol-2-yl)propionamide]
[1]; [4]
  inhibition at 1 µM: 2%
[2]; [5]
  inhibition at 1 µM: 88%

## CC(=O)Oc1ccc2c(c1)CCC1C2CC[C@@]2(C)C1[C@H](CCC(=O)Nc1ncc(C)s1)C[C@@]2(O)C#N (stereo partly drawn) [Compound 22, (13S,15R,17S)-17-cyano-17-hydroxy-13-methyl-15-(3-((5-methylthiazol-2-yl)amino)-3-oxopropyl)-7,8,9,11,12,13,14,15,16,17-decahydro-6H-cyclopenta[a]phenanthren-3-yl acetate]
[1]; [4]
  inhibition at 1 µM: 1%
[2]; [5]
  inhibition at 1 µM: 71%

Reference: patent US9850272B2, “Therapeutically active estratrienthiazole derivatives as inhibitors of 17.beta-hydroxy-steroid dehydrogenase, type 1” (FORENDO PHARMA LTD, priority 2013, dated 2017)
